These results are taken from patent publication US20090104235A1, “Method for Producing of a Preparation of a Solid Dmso-Containing Silicone Oil Emulsion for the Binding of Reactive Oxygen Compounds in Human and Animal Bodies” (priority 2005, published 2009).

The nature of data set [1]: Case report: morbus Bechterev patient with chronic pain, daily suppository application. Format: in vivo, human. An excerpt:
[…]: morbus Bechterev for over 10 years. Treatment of chronic pain with Celebrex.

A short description of data set [2]: DMSO application quantity needed for the same effect; comparison with pure DMSO. Format: in vivo, human. Conditions: dose of pure DMSO, without silicone emulsion. The procedure: With standard preparations for the treatment of chronic diseases among humans, DMSO can be prescribed in a dose of up to 1 g/kg of body weight. A toxic effect only occurs among humans when over 1 g/kg DMSO is supplied (N. M. Luerry et al. Drug. Intell. Clin. Pharm. 18, 591 [1984]). Due to the silicone emulsion according to the invention, the same effect is achieved among humans with an application quantity of DMSO of 1 mg/kg of body weight. With the silicone emulsion according to the invention, the quantity of DMSO to be applied is therefore reduced to 1/1000th of the application quantity used to date.

The conditions of data set [3]: among humans; N. M. Luerry et al. 1984; cited from earlier work.

As to `Cc1ccc(-c2cc(C(F)(F)F)nn2-c2ccc(S(N)(=O)=O)cc2)cc1` [Celebrex], the side effects entry in data set [1] (morbus Bechterev patient) is listed as “clearly cause difficulty to the patient”. Besides, in data set [1] (treatment of chronic pain, morbus Bechterev for over 10 years), the “influence on disease progression” value was “can also not be significantly influenced”.
With `C[S+](C)[O-]` [DMSO, dimethylsulphoxide], the “pain-relieving and inflammation-restricting effect” value in data set [2] was “does not lead to the high pain-relieving and inflammation-restricting effect”. In addition, the “dose at which a toxic effect occurs” value in data set [3] is “over 1 g/kg”.
